Experimental data taken from US20240034761A1, “REGENERATION OF MAMMALIAN TISSUES USING SYNTHETIC IMMODULINS” (priority 2022, published 2024).
Marks after values point to notes of the source that are not given here. Peptide text beside a SMILES is read from it.

Assays:
[1] = system: THP1-Dual monocyte reporter cell line; test: THP1-Dual myeloid cell differentiation assay (PMA protocol); type: cell-based, human; settings: PMA 24 h, then peptide 0.33 uM or 0.66 uM 24 h
In short: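 THP1-Dual monocytes were primed for 24 h with 100 ng/ml PMA, then given peptide (0.33 uM or 0.66 uM) for a further 24 h at 37 degrees C. CCL22 was measured in the supernatants. Adherent cells were stained for surface markers such as CD169, Clec9a or Clec12a with labeled anti-human antibodies.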

[2] = system: THP1-Dual monocyte reporter cell line; test: Adjuvant effect of helper molecules on immX3 peptide potency in THP1-Dual assay; type: cell-based, human; settings: immX3 peptide 330 nM, no helper (buffer)
Procedure: (§1) Mammalian cell differentiation assays employed the THP1-Dual monocyte reporter cell line (Invivogen Inc, San Diego, CA) seeded at 2×10e5 cells per well in 96-well plates and cultured at 37 degrees C. in RPMI-1640 growth medium plus 10% fetal bovine serum and 1% penicillin/streptomycin. Cells were subsequently treated for 24 hours with 100 ng/ml Phorbol 12-myristate 13-acetate (PMA protocol; Cayman Chemical Company, Ann Arbor, MI). Peptide (0.33 uM or 0.66 uM, as indicated) was then added, and incubation continued for an additional 24 hours. Culture supernatants were assayed for CCL22. Plates with adherent cells were washed with PBS and assayed for immunoreactivity of surface markers such as CD169, Clec9a or Clec12a using fuorescent tag- or biotin-labeled anti-human antibodies purchased from Miltenyi Biotec (Auburn, CA) and the secondary detection reagent recommended by the manufacturer.
The THP1-Dual cell differentiation assay was carried out as described above in Example 2, using immX3 peptide (330 nM) in all samples plus the indicated helper or inhibitor molecule. Molecules were purched from Cayman Chemical Company (Ann Arbor, MI) or Sigma Chemical Company (St. Louis, MO). AU=arbitrary ELISA units. **p<0.01.

[3] = Second binding experiment: FITC-HMW-HA binding with holotransferrin, pH and cold competitors; design: key to FITC-HMW-HA binding, +cold LMW-HA / FITC-HMW-HA binding, +cold HMW-HA: fluorescence counts normalized to peptide binding control = 100; settings: holotransferrin 10 ug/well; for FITC-HMW-HA binding, +cold HMW-HA: HMW-HA 10 ug/well; for FITC-HMW-HA binding, +cold LMW-HA: LMW-HA hexamer 10 ug/well; for FITC-HMW-HA binding, +cold PIP2: excess PIP2 500 ng/well
Procedure: Effects of pH, PIP2 and size classes: Streptavidin-coated 96-well plates (G-Biosciences, St. Louis, MO) were pre-loaded with biotinylated peptides [see Example 1] at 400 ng/well, at room temperature for 60 minutes. The plate was washed with PBS buffer and then 1 ug FITC-labelled heparin or hyaluronic acid (FITC-HMW-HA) in 100 uL PBS buffer was added per well (all tests done in quadruplicate). Incubation proceeded for 90 minutes at room temperature, followed by two PBS washes. The plate was read in a standard laboratory fluorometer (488/525 nm exitation/[…]) and the counts normalized for immX3 peptide binding=100. Values statistically above background are shown in bold font. **p<0.05 versus immX3AVD.
A second binding experiment was done as above, but using either 6 mM sodium phosphate buffer pH 7.4 or sodium citrate buffer pH 5.2 in the presence of FITC-HMW-HA (1.5 ug/well), holotransferrin (10 ug/well) and excess PIP2 (500 ng/well), LMW-HA (hexamer; 10 ug/well) or HMW-HA (10 ug/well). **p<0.05 versus peptide binding control (=100);

[4] = system: C2C12 myoblastic cell line; test: C2C12 myoblast differentiation, creatine kinase; type: cell-based; settings: 0.66 uM peptide, 96 hours, relative to immX3AVD = 100
Procedure: Differentiation assays employed the C2C12 myoblastic cell line (ATCC, Manassas, VA) seeded at 2×10e5 cells per well in 96-well plates and cultured at 37 degrees C. in DMEM growth medium plus 10% fetal bovine serum and 1% penicillin/streptomycin. For differentiation, 10% fetal bovine serum was replaced with 2% horse serum. 0.66 uM peptide was then added, and incubation continued for an additional 96 hours. Plates with adherent cells were washed with PBS, lysed with Lytic-M buffer (Sigma Chemical Company, St. Louis, MO) and the lysates were assayed for creatine kinase using a kit purchased from Bioassay Systems (Cat. #ECPK-100, Hayward, CA). Effects were visually confirmed with microscopy tracking myotube formation. Results were expressed as units per milliliter relative to the control immX3AVD peptide, and p values were also calculated and shown relative to control immX3AVD peptide (** p<0.05 versus immX3AVD control; avg±SD).

[5] = system: Primary human T-cells pre-selected for recognizing GAD65 peptide antigen; test: GAD65-specific primary T-cell differentiation on peptide-treated THP1-Dual cells; type: cell-based; settings: peptide 0.66 uM, GAD65 1 ug/ml
Procedure: as §1
Another non-myeloid lineage was also tested. Primary human T-cells pre-selected for recognizing GAD65 peptide antigen, and the peptide antigen itself were purchased from Cellero LLC (Memphis, TN). THP1-Dual cells were treated with both GAD65 peptide antigen (1 ug/ml) and immodulin peptide (0.66 uM) using the protocol described in Example 2. After completion of the myeloid cell differentiation step (24 hours), supernatants were collected and 100,000 primary T-cells were added to each well in RPMI-1640 medium (100 uL per well). Plates were incubated for an additional 96 hours and cell extracts were prepared using CellLytic-M reagent (Sigma Chemical Co., St Louis, MO). Supernatants were assayed for CCL22, IL-10 and TGFbeta, and cell extracts assayed for FoxP3, all by ELISA using reagents from R&D Systems, Minneapolis, MN. The results are shown in the table below (**p<0.05 vs immX3AVD, set to=100): […]

[6] = system: Osteoblast cell line MC3T3E1; test: MC3T3E1 osteoblast differentiation, alkaline phosphatase; type: cell-based; settings: peptide 0.66 uM, 5 days, immX3AVD = 100
Procedure: Yet another non-myeloid lineage was tested. Osteoblast cell line MC3T3E1 was purchased from ATCC (Manassas, VA) and grown in 96-well plates in alpha-MEM medium supplemented with 50 ug/ml ascorbic acid and 5 mM beta-glycerophosphate. Peptides were added and incubation proceeded for 5 days. Cells were washed with PBS buffer and extracts prepared using 100 uL 1X RIPA buffer (Cayman Chemical Company; Ann Arbor, MI) per well. Alkaline phosphatase was measured using 0.37 mg/ml 4-nitrophenyl phosphate in DEA buffer (both reagents purchased from Cayman Chemical Company) by measuring the slope of absorbance at 405 nm using a spectrophotometer. 10 uL of RIPA extract was used for each assay. Separately, protein concentration of extract was measured using a commercial kit. Values were corrected for protein concentration. Results are shown below (**p<0.05 vs immX3AVD=100): […]

In the case of `CC(C)[C@H](NC(=O)[C@H](C)NC(=O)[C@H](Cc1c[nH]c2ccccc12)NC(=O)[C@H](CS)NC(=O)[C@H](Cc1ccccc1)NC(=O)CNC(=O)[C@H](CCCNC(=N)N)NC(=O)[C@H](CCCCN)NC(=O)[C@H](CCCNC(=N)N)NC(=O)CNC(=O)[C@H](CCCCN)NC(=O)[C@H](CO)NC(=O)[C@@H]1CCCN1C(=O)[C@H](CCCNC(=N)N)NC(=O)[C@H](CS)NC(=O)[C@H](CCC(N)=O)NC(=O)[C@H](CCCCN)NC(=O)[C@H](CCCCN)NC(=O)[C@H](CCCCN)NC(=O)[C@H](Cc1ccc(O)cc1)NC(=O)[C@H](Cc1ccccc1)NC(=O)CNC(=O)[C@H](CCCCN)NC(=O)[C@@H](N)CCCCN)C(=O)N[C@@H](CC(=O)O)C(=O)O` [immX3AVD] (H-KKGFYKKKQCRPSKGRKRGFCWAVD-OH), the “CD169+ (AU)” value ([1]; relative to immX3AVD = 100) is reported as 100 AU, the “Clec12A(AU)” value ([1]; relative to immX3AVD = 100) is reported as 100 AU and the CCL22 ([1]; culture supernatant) is reported as 282.4 ± 18.4 pg/mL. For the same molecule, the “CD169 (AU)” value [2] was 100.0 ± 4.9 AU, the “FITC-HMW-HA binding, CONTROL” value ([3]; pH 5.2) was 140.0 ± 16.7** and the “FITC-HMW-HA binding, +cold HMW-HA” value ([3]; pH 5.2) was 12.5 ± 7.1**. The “FITC-HMW-HA binding, +cold LMW-HA” value ([3]; pH 5.2) was 100.6 ± 15.9, the “FITC-HMW-HA binding, +cold PIP2” value ([3]; pH 5.2) was 92.2 ± 29.4 and the “FITC-HMW-HA binding, +cold HMW-HA” value ([3]; pH 7.4) was 18.5 ± 3.7**. The “FITC-HMW-HA binding, +cold LMW-HA” value ([3]; pH 7.4) was 92.6 ± 11.8**, the “FITC-HMW-HA binding, +cold PIP2” value ([3]; pH 7.4) was 10.4 ± 8.2** and the “FITC-HMW-HA binding, CONTROL” value ([3]; pH 7.4, peptide binding control = 100) was 100.0 ± 8.3. For the same molecule, the “Creatine Kinase Act.” value ([4]; helper D-raffinose (1 mM)) was 140.3 ± 8.3** units per milliliter, the “Creatine Kinase Act.” value ([4]; helper GW 3965 (2 uM)) was 67.4 ± 5.2** units per milliliter and the “Creatine Kinase Act.” value ([4]; helper GW 501516 (2 uM)) was 174.2 ± 5.0** units per milliliter. The “Creatine Kinase Act.” value ([4]; helper L-ornithine (1 mM)) was 161.5 ± 6.5** units per milliliter, the “Creatine Kinase Act.” value ([4]; helper Tf (holotransferrin 2 ug/ml)) was 120.6 ± 2.5** units per milliliter and the “Creatine Kinase Act.” value ([4]; helper Tf + HMW-HA (2 ug/ml)) was 33.2 ± 3.2 # units per milliliter. For the same molecule, the “Creatine Kinase Act.” value ([4]; helper Tf + LMW-HA (2 ug/ml)) was 136.7 ± 13.3 units per milliliter, the “Creatine Kinase Act.” value ([4]; helper ciprofibrate (2 uM)) was 109.4 ± 3.2** units per milliliter and the “Creatine Kinase Act.” value ([4]; helper none) was 100.0 ± 2.2 units per milliliter. For the same molecule, the “FoxP3 (AU)” value ([5]; cell extracts, immX3AVD = 100) was 100.0 ± 20.5 AU, the “CCL22” value ([5]; supernatant) was 88.8 ± 13.6 pg/mL and the “IL-10” value ([5]; supernatant) was 1331 ± 94.3 pg/mL. For the same molecule, the “TGFb” value ([5]; supernatant) was 131.4 ± 41.4 pg/mL, the “Alk. Phos. Activity” value ([6]; compound added: None) was 100.0 ± 0.5 and the “Alk. Phos. Activity” value ([6]; plus 2 uM Ciprofibrate) was 127.2 ± 2.7**. For the same molecule, the “Alk. Phos. Activity” value ([6]; plus 2 uM GW 3965) was 59.1 ± 4.3**, the “Alk. Phos. Activity” value ([6]; plus 2 uM GW 501516) was 168.7 ± 3.0** and the “Alk. Phos. Activity” value ([6]; plus 1 mM D-raffinose) was 134.6 ± 4.6**. The “Alk. Phos. Activity” value ([6]; plus 1 mM L-ornithine) was 159.7 ± 4.4**.
